Measured values reported in patent US6737076B2, “Hypoallergenic composition containing tolerogenic peptides” (Nestec S.A., priority 1999, dated 2004).

How the values were obtained:
GLM = assay: Lymphocyte proliferation stimulation index (GLM) after oral peptide feeding; format: in vivo, mice; settings: synthetic peptides, 20 mcg/g of body weight
Procedure: (§1) Spleen cell solutions were homogenized and purified. Cells were cocultured in the presence of β-LG or of phytohaemagglutinin A. (^3H)Tdr (Amersham, Zurich) was added in the final 6 hours of culture and the plates were harvested and analyzed by scintillation counting. Stimulation indices were calculated as the ratio of blank-subtracted test and control values expressed as the mean cpm (^3H)Tdr incorporation by triplicate cultures.
(§2) The tolerogenic peptides T6 and T17 contained in tolerogenic fraction F2 were synthetically prepared. T13 contained in a non tolerogenic fraction was also synthesized as a negative control. Oral tolerance induction of these peptides were tested in […] mice as described in example 1c) except that the dose is of 20 mcg/g of body weight.

anti-β-LG IgE = assay: Seric anti-β-LG IgE by ELISA after oral tolerance induction and immunization; format: in vivo, mice; settings: synthetic peptides, 20 mcg/g of body weight; control 3.39
Procedure: (§3) Female Balb/c mice were obtained from IFFA-Crédo (L'Abresle, France). They were all bred and raised on a milk free diet. The mice were 3 weeks old at the start of the experiments.
(§4) Gavages were orally administered to the mice at age 22 days, by gastric feeding of native β-LG (5 mg/g of body weight), various amounts of TTH β-LG, or various amounts of the different β-LG peptidic fractions. Control mice were fed saline water. 5 days later, all mice were immunized β-LG and OVA (Ovalbumin, grade V, Sigma), as a non-related antigen for testing the specificity of the immune response, 21 days after systemic challenge, a Delayed Type Hypersensitivity (DTH) evaluation was done by duplicate thickness measures of the left, rear footpad prior to, and following, immunization with β-LG.
(§5) 24 hours after DTH immunization, individual increases in foot pad thickness of those injected the day before were measured. […] Specific IgE against β-LG and against OVA were determined both in seric and intestinal samples.
Serum and intestinal fluid dilutions were assayed in duplicate for anti-β-LG and anti-OVA IgE antibodies by ELISA. […] Titers were determined by calculating the dilution of the sample that gave twice the absorbance of the negative control. Titers were expressed as the log10 of the reciprocal of the dilution. […]

Spleen cell = assay: Splenocyte specific proliferation assay with β-LG ((3H)Tdr incorporation) from fed mice; format: in vivo; settings: 20 mcg/g of body weight; for cellular tolerance (specific inhibition of lymphocyte proliferation), in words: oral administration of synthetic peptides; for Stimulation index (rate): synthetic peptides
Description: FIG. 1 represents specific oral tolerance induction in mice fed once with either TTH β-LG, F2 or F(7+9). A: Humoral (dark bars) and mucosal (gray bars) anti-β-LG IgE response. B: β-LG-specific DTH response (●) are individual foot pad increments and (−) are means from 10 mice per group. C and D: Specific (β-LG) and non specific (PHA) proliferative responses of splenic cells. Splenic lymphocytes from mice fed with either saline (♦), TTH β-LG (▪), F2 (▴), or F (7+9) (●) were isolated and subsequently stimulated with decreasing concentrations of antigens. ^3H thymidine incorporation was measured after 120 hours of culture. (^3H)Tdr incorporation results were expressed in cpm, as a mean of triplicate cultures, the blank-subtracted mean was then plotted respectively against β-LG or PHA concentration.
24 hours after DTH immunization, individual increases in foot pad thickness of those injected the day before were measured. Differences between these two measurements were expressed in <thickness (millimeters) and used in group comparisons. Then, from all mice, blood samples were obtained, spleens were taken and pooled according to group of treatment. Splenocyte specific proliferation assays were performed for each group. Intestinal contents were individually collected. Serum and intestinal samples were rapidly frozen at −80° C., until assays. Specific IgE against β-LG and against OVA were determined both in seric and intestinal samples.
as §1, §2

Balb/c mice = assay: Oral tolerance induction mouse model, overall tolerogenic properties; format: in vivo; settings: oral administration of synthetic peptides, 20 mcg/g of body weight
Procedure: as §3, §4, §5
Qualitative responses of the tolerogenic properties generated from feeding the different fraction groups at two different concentrations (0.5 or 0.125 mg/g of body weight) were evaluated. Induction or absence of induction of tolerogenic responses to β-LG has been determined by the statistical significance of the immune response. […]

β-LG epitopes = assay: ELISA inhibition, β-LG IgG binding capacity (residual β-LG epitopes, antigenicity)
Procedure: An ELISA inhibition was used to determine β-LG epitopes in β-LG hydrolysate and in β-LG fractions. β-lactoglobulin titers were calculated from a 5-fold dilution β-LG standard curve run on each plate.

Row | Substance | Stimulation index (GLM) (GLM) | tolerized anti-LG IgE/ control (tolerized value) (anti-β-LG IgE) | cellular tolerance (specific inhibition of lymphocyte proliferation), in words (Spleen cell) | Stimulation index (rate) (Spleen cell) | tolerance induction / tolerogenic potential (in words) (Balb/c mice) | antigenicity (in words) (β-LG epitopes)
1 | H2N-I-D-A-L-N-E-N-K-COOH (H-IDALNENK-OH) [T6] | 0.285 | 3.24/3.39 | induces a cellular tolerance | 0.53 | high tolerogenic potential | very low antigenicity
2 | H2N-V-L-V-L-D-T-D-Y-K,-K-COOH [T17] | 0.405 | 2.67/3.39 | induces a cellular tolerance | 0.305 | high tolerogenic potential | very low antigenicity
